{
  "source": "patent US9663789B2",
  "about": "“PME-1 as a biomarker to predict and diagnose endometrial and breast cancer and gene silencing of PME-1 to inhibit epithelial to mesenchymal transition” (MEDICAL DIAGNOSTIC LABORATORIES, LLC, priority 2013, dated 2017)",
  "key": {"Ishikawa cells [1]": {"system": "Ishikawa cells", "test": "Foci formation assay, Ishikawa cells", "format": "cell-based, human", "conditions": "DMSO set to 100%", "protocol": "This study was completed in Ishikawa endometrial cancer cells.\n1,000 cells were plated in a six well tissue culture dish in selection media (to include 5 μg/ml puromycin) (InvivoGen). Cells were allowed to adhere and grow in a 5% CO2, 37° C. incubator for 10 to 14 days. […] Cells were stained with 1% crystal violet (Sigma Aldrich) for five minutes and rinsed with PBS. Colonies were counted and data is presented as the percentage of change compared to the control. All Experiments were repeated at least three times."}, "recombinant PME-1_des3": {"target": "recombinant PME-1_des3 (Homo sapiens, UniProt Q9Y570)", "sequence (Q9Y570 1-383)": "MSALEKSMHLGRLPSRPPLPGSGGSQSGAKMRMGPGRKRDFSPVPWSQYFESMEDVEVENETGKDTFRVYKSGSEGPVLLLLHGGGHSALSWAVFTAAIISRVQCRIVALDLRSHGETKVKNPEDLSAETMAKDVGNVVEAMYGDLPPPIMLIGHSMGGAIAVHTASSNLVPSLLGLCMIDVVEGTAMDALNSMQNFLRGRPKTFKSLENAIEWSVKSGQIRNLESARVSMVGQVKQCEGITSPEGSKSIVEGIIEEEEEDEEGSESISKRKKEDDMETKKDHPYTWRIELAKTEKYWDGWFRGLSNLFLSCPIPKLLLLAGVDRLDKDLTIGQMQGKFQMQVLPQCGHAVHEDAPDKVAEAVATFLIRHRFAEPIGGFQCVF", "test": "Thermal melt (thermal shift) assay", "format": "binding", "conditions": "50 μM ABL-127; PME-1+DMSO vehicle ˜55° C.", "protocol": "There are several commercially available covalent PME-1 inhibitors that we have analyzed as potential endometrial cancer therapeutics. To confirm that the inhibitors directly bind PME-1, we completed a thermal melt assay. One micromole (1 μmole) of recombinant PME-1_des3, of which the last 3 amino acids are deleted, were pre-incubated with SYBR orange in the presence of 50 μM ABL-127 (a potent covalent PME-1 inhibitor, squares) or 0.05% DMSO (vehicle, circles) for 10 minutes (FIG. 25) at 37° C. We then performed a thermal gradient, increasing the temperature by 2° C. each minute from 37° C. to 95° C. and fluorescent signal was detected at 492-601 nm on a thermal cycler. The increase in Tm from ˜55° C. (PME-1+DMSO, circles) to ˜65° C. (PME-1+ABL-127, squares) indicated thermal stabilization of the PME-1 protein via direct binding of the ABL-127 inhibitor (FIG. 25).\nThe assay was completed by first conducting a 10 min pre-incubation of one μmole of recombinant PME-1des3 with 50 μM ABL127 (Sigma) or vehicle (0.05% DMSO) in the presence of SYBR Orange (1:1,000, v/v, Sigma) at 37° C. in 1×NEB buffer 2 (50 mM NaCl, 10 mM Tris-HCl, 10 mM MgCl2, 1 mM DTT, pH 7.9 at 25° C.), a thermal gradient was performed increasing temperature by 2° C. per minute increments from 37° to 95° C. and fluorescence (492 nm-610 nm) was acquired on a thermal cycler Mx3005P (Stratagene)."}, "Ishikawa cells [2]": {"system": "Ishikawa cells", "test": "Trans-well migration assay", "format": "cell-based, human", "conditions": "24 hr, collagen, 30% FBS bottom chamber", "protocol": "We next asked if PME-1 inhibition led to decreased cell migration by completing a trans-well migration assay. Cells were synchronized for 24 hours in media containing 0% FBS. For this experiment, DMSO was again used as the vehicle control and Ishikawa cells were treated with DMSO (control) or 50 nM ABL-127 or 20 μM AMZ-30 for 24 hr and were allowed to migrate through a collagen-coated well towards the bottom chamber, containing media with 30% FBS.\nThe assay was completed with ECC-1 endometrial carcinoma cell lines following kit instructions Cultrex 96 Well Collagen IV Cell Invasion Assay (cat #3458-096-K). Briefly, cells were serum starved for 24 hours prior to experimentation, then counted and put into the top chamber of a collagen type IV coated Transwell membrane at a concentration of 1×10^6 cells/well in 0% FBS. The bottom chamber contained 30% FBS. Cells were allowed to invade at 37° C. humid chamber incubator for 24 hours. Cells that invaded were analyzed using the kit provided Calcein-AM and fluorescence was read using FluoStar Galaxy."}, "RL95-2 cells": {"system": "RL95-2 cells", "test": "Colony forming / invasive growth assay in Matrigel", "format": "cell-based, human", "conditions": "RL95-2, 10 ng/ml TGF-β, 10 days", "protocol": "To determine if PME-1 contributes to the more invasive and metastatic phenotypes, we performed a colony forming assay in matrigel.\nThe 3D On Top Matrigel Assay was completed in 24 well dishes. Briefly, the bottoms of 24 well dishes were coated with 50 μl BD Matrigel Basement Matrix Phenol Red Free (BD Biosciences cat. #356237) and allowed to solidify at 37° C. 10^5 cells were suspended in 250 μl chilled medium containing either 10 ng/ml of TGF-b or vehicle and allowed to settle at 37° C. for 30 minutes. Chilled medium containing 10% of Matrigel was added by pipetting gently down the sidewall of the well and incubated at 37° C. for ten days changing top medium every second day. Colony counts were performed on the tenth day; averages were taken from three fields of view using a 10× objective. Experiment was repeated three times."}, "PME-1 [3]": {"system": "PME-1", "test": "Quantitative real-time PCR of PME-1 expression after TGF-β treatment", "format": "cell-based, human", "conditions": "RL95-2 control cells and +PME-1 cells, TGF-β 24 hours", "protocol": "In this study, we transfected RL95-2 cells to express empty vector (Control), over-expressing PME-1 (+PME-1) or expressing shRNA against PME-1 (−PME-1 SEQ ID NO: 2) followed by serum starvation for 24 hours. Afterwards, either vehicle or TGF-β treatment was performed at the end of the 24 hours. TGF-β was used to induce cells to initiate the EMT program. Gene expression analysis was conducted using quantitative real-time PCR.\nTotal RNA was extracted with Qiagen RNAEasy kit from RL95-2 cells. cDNA was synthesized using 500 ng-1 μg of RNA and SuperScript VILO c-DNA mix (Life Technologies). Taqman probes and PCR-mix were purchased from Life Technologies. All samples were run in triplicates. Results are representative of three independent experiments in which genes of interest were normalized to the house-keeping gene, 18S or GAPDH, where fold-change was calculated using the ddCt method."}, "PME-1 [4]": {"system": "PME-1", "test": "Western blot of PME-1 protein in RL95-2 cells", "format": "cell-based, human", "conditions": "GAPDH loading control", "protocol": "We prepared RL95-2 cell lines expressing empty vector (control), over-expressing PME-1 (+PME-1), or expressing shRNA against PPME1, the gene that codes for PME-1 protein (−PME-1). Using these cells, we confirmed the appropriate level of PME-1 via real-time RT-PCR (data not shown) and Western blot analysis (FIG. 8). GAPDH was used as a loading control.\nWe also prepared two different shRNAs targeted against PME-1.\n15 μg of protein was used for western analysis. PME-1 antibody (Santa Cruz) and COXIV (Cell Signaling Technologies) were used for detection of proteins and the blots were developed using chemiluminescence (Pierce ECL Western Blotting Substrate—Thermo Scientific) on the GE ImageQuant LAS 4000. For analysis of Akt, ERK, and β-catenin signaling in tissue culture, western analyses were completed as follows. RL95-2 cells stably infected with lentivirus expressing constructs were selected with puromycin (Invivogen). The cells were incubated with either 50 μM Akt inhibitor (LY 294002, Cell Signaling Technologies) or 40 μM ERK inhibitor (V0126, Cell Signaling Technologies) for 1-2 hours at 37° C. 1.5× Laemelli buffer (0.5 M Tris pH6.8, […], 10% sodium dodecyl sulfate, 100 mM EDTA) was used to prepare cell lysates. 20 μg of protein was used for western analysis. […]"}},
  "data": [
    {"compound": "COC(=O)N1C(=O)C(c2ccccc2)(C2CCCC2)N1C(=O)OC", "note": "(stereo in doubt) [ABL-127, (3R)-Dimethyl 3-cyclopentyl-4-oxo-3-phenyl-1,2-diazetidine-1,2,-dicarboxylate]", "values": [
      {"measurement": "decrease in the amount of foci formed", "setting": "Ishikawa cells [1]; 50 nM every 2-3 days for 10 days", "value": "~50", "unit": "%"},
      {"measurement": "Tm of PME-1 with inhibitor", "setting": "recombinant PME-1_des3", "value": "~65", "unit": "°C"},
      {"measurement": "percentage of cells capable of migrating", "setting": "Ishikawa cells [2]; 50 nM", "value": "dramatic decrease in the percentage of cells that are capable of migrating"}
    ]},
    {"compound": "N#C/C(=C\\c1cccn1S(=O)(=O)c1cccc([N+](=O)[O-])c1)S(=O)(=O)c1ccc(F)cc1", "note": "[AMZ-30, (E)-2-(4-Fluorophenylsulfonyl)-3-(1-(3-nitrophenylsulfonyl)-1H-pyrrol-2-yl)-acrylonitrile]", "values": [
      {"measurement": "decrease in the amount of foci formed", "setting": "Ishikawa cells [1]; 25 μM every 2-3 days for 10 days", "value": "~50", "unit": "%"},
      {"measurement": "percentage of cells capable of migrating", "setting": "Ishikawa cells [2]; 20 μM", "value": "dramatic decrease in the percentage of cells that are capable of migrating"}
    ]},
    {"compound": "TGF-β", "values": [
      {"measurement": "colony number in Matrigel", "setting": "RL95-2 cells", "value": "overall decrease in colony number"},
      {"measurement": "increase in PME-1 expression", "setting": "PME-1 [3]", "value": "~2", "unit": "fold"}
    ]},
    {"compound": "shPPME1 no. 1: shRNA against PPME1, target sequence SEQ ID NO: 1 GTACAGCTATGGATGCACTTA, bp 554-574; full hairpin SEQ ID NO: 7 (CCGGGTACAGCTATGGATGCACTTACTCGAGTAAGTGCATCCATAGCTGTACTTTTT; listed as Homo sapiens)", "values": [
      {"measurement": "PME-1 levels by Western blot analysis", "setting": "PME-1 [4]", "value": "significantly decreased PME-1 levels"}
    ]}
  ]
}
